Measured values reported in patent US8399466B2, “Composition for regenerative treatment of cartilage disease” (Mitsubishi Tanabe Pharma Corporation, priority 2001, dated 2013).

Legend:
articular chondrocytes = experiment: Increase of matrix production of articular chondrocytes (Alcian blue staining of proteoglycan); assay type: cell-based, rabbit; conditions: for Proteoglycan Production (%): cultivation until day 5, vehicle = 100
Experimental: Four NZW line rabbits (Kitayama Labes., Co Ltd.; male; 4-week-old) were sacrificed with bleeding under ether anesthesia and femur knee joints were collected aseptically. The collected knee joints were stored in phosphate buffer (pH 7.2) containing 0.2% glucose and only the cortical layer of knee joint was scrapped with a surgical knife into a 50 ml tube containing phosphate buffer (pH 7.2) containing 0.2% glucose. The collected knee joint cortical layer was cut into as small sections as possible on a dish with a razor and shaken at 37° C. for 15 minutes in phosphate buffer containing 0.2% glucose, supplied with 10× trypsin-ethylenediamine tetraacetic acid (EDTA)·4 Na salt (GIBCO; Cat. No. 15400-054) (50 ml, with 100 mg of trypsin and 40 mg of EDTA·4Na; pH 7.2). After shaking, the sample was centrifuged (1,400 rpm) to collect precipitates, and the precipitates were washed twice with 40 ml of phosphate buffer containing 0.2% glucose. The washed precipitates were combined with 40 ml of serum-free α-minimum essential medium (MEM: GIBCO; Cat: No. 12571-063) containing 60 mg of collagenase for cell diffusion (Wako Pure Chemical Industries, Ltd., 034-10533) and transferred to a 100 ml beaker containing a sterilized stirrer bar. Under stirring with the stirrer bar, the collagenase digestion was carried on for about 1 hour in a CO2 incubator at 37° C. Cartilage fragments were removed from the collagenase-treated cells using a […] Cell Strainer ([FALCON; Cat. No. 2340]). To the residual treated cells was added 10 ml of α-MEM medium containing 10% fetal calf serum (FCS), and centrifuged (1,400 rpm). The precipitates were washed with 10% FCS-αMEM medium twice, suspended in appropriate volume of the same medium and the resultant suspension was seeded into collagen type II (Wako Pure Chemical Industries, Ltd., 033-13901)-coated plates (48 well) at 20,000 cells/well. On the next day, the medium was replaced with 10% FCS-αMEM medium.
When cells reached to confluent after the medium exchange procedure above, the medium for test group was replaced with test compound-containing medium (including 0.1% dimethylsulfoxide as a vehicle). As a medium to which a test compound is added, 10% FCS-αMEM medium containing 0.2 mM ascorbic acid was used. The day on which test compound-containing medium was added for the first time was defined as “day 1”. The medium exchange with the same medium was again conducted at day 3 and the cultivation continued until day 5. As to the control group, the medium was exchanged at the same time using the same medium as the test group except that it is free of test compound (containing vehicle only), and the cultivation was carried out in the same manner. After completion of cultivation, the supernatant was removed from the culture medium. Cells were fixed by addition of 0.25 ml of neutral buffer containing 4% paraformaldehyde and incubation for 2 hours. Cells were washed three times with 1 ml of phosphate buffer (pH 7.2) and then stained for 4 hours with 0.1% Alcian blue 8GX (Sigma; A3157) dissolved in 0.1 M hydrochloric acid, which Alcian blue selectively stains cartilage matrix proteoglycan. After staining, the cells were washed 3 times with 1 ml of phosphate buffer (pH 7.2). Alcian blue which had stained cartilage matrix was dissolved with 0.25 ml of aqueous 6 M guanidine hydrochloride solution and a portion of the solution was used to determine the absorbance at 620 nm. The amounts of Alcian blue used for staining was calculated from the absorbance, which in turn was used for the estimation of the amount of matrix (proteoglycan).

[1] = tested on: cAMP-hydrolyzing PDE expressed in articular cartilage (PDE4-related peaks); experiment: cAMP hydrolyzing activity (PDE activity) of Mono Q fractions of articular cartilage extract, radio-labeled nucleic acid assay; assay type: biochemical, rabbit; conditions: final concentration 1×10^−5 M; FIG. 1
Experimental: Four NZW line rabbits (Kitayama Labes., Co Ltd.; male; 4-week-old) were sacrificed with bleeding under ether anesthesia and femur knee joints were collected aseptically. The collected knee joints were stored in phosphate buffer (pH 7.2) containing 0.2% glucose and only the cortical layer of knee joint portion was scrapped with a knife into a 50 ml tube containing phosphate buffer (pH 7.2) containing 0.2% glucose. The collected knee joint cortical layer was cut into as small sections as possible on a dish with a razor, washed with ice-cold phosphate buffer and homogenized with a homogenizer (Polytron: Kinematica A.G.) in homogenization buffer (20 mM Tris-HCl, pH 7.4, 2 mM magnesium acetate, 0.3 mM calcium chloride, 1 mM dithiothreitol, 40 μM leupeptin, 1.3 mM benzamidine, 0.2 mM phenylmethylsulfonyl fluoride and 1 mM sodium azide). The resultant homogenate was centrifuged (100,000×g, 60 minutes) to separate supernatant.
The supernatant was subjected to Mono Q Sepharose High Performance column (Amersham Pharmacia Biotech) previously equilibrated with an elution buffer (20 mM Tris-HCl, pH 7.4, 1 mM calcium chloride, 1 mM dithiothreitol, 2 μM leupeptin, 5 mM benzamidine). […]
The determination of PDE activity was performed by a radio-labeled nucleic acid assay. […] To each eluate was added a liquid scintillation cocktail and the radio activity was measured.

## COc1ccc(C2CNC(=O)C2)cc1OC1CCCC1 (stereo not shown) [Compound (44)]
Articular chondrocytes; 1 × 10^−4 M
  Proteoglycan Production (%): 116%
Articular chondrocytes; 1 × 10^−5 M
  Proteoglycan Production (%): 125%
Articular chondrocytes; summary of Table 1
  matrix production promoting activity: exert matrix production promoting activity
[1]
  inhibition of cAMP hydrolyzing activity of the four peaks: strongly inhibited
